From patent US7282512B2, “Cycloalkyl ketoamides derivatives useful as cathepsin K inhibitors” (SmithKline Beecham Corporation, priority 2002, dated 2007)

Molecular target: T1, human cathepsin K (Homo sapiens, UniProt P43235)
T1 construct: The proform of cathepsin K was converted to mature cathepsin K by brief exposure to pH 4; made in house; host or cells: baculovirus; Trichoplusia ni High Five cells (virus raised in Sf-9)
T1 sequence (P43235 115-329): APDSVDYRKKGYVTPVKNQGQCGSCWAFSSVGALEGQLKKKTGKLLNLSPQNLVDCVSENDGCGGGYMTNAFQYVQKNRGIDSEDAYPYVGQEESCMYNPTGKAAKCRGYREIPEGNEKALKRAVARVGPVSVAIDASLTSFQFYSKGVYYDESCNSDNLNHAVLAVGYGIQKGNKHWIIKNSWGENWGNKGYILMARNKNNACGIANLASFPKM
Experiment: cathepsin K inhibition assay, fluorogenic substrate Cbz-Phe-Arg-AMC, progress curve method
Assay type: biochemical
Conditions: Table 1; human recombinant enzyme, pH 5.5, 30° C., 10 μM substrate; read-out: hcatK Ki
Description: All assays for cathepsin K were carried out with human and rat recombinant enzyme. Assays for cathepsins S & V were also carried out with human recombinant enzyme. Assays for human cathepsins B, H, and L were carried out with enzyme, purchased from Athens Research and Technology, Inc., prepared from human liver tissue. […] A stock substrate solution of Cbz-Phe-Arg-AMC was prepared at a concentration of 50 mM in dimethyl sulfoxide. This substrate was diluted into the assay for a final substrate concentration of 10 μM in the rat cathepsin K, human cathepsin K, and human cathepsin B assays; a final substrate concentration of 5 μM in the human cathepsin L assay; and a final substrate concentration of 2 μM in the human cathepsin V assay.
All assays contained 10% dimethyl sulfoxide. […] All assays were conducted at 30° C. Product fluorescence (excitation at 360 nm; emission at 440 nm, (except cathepsin H which used excitation at 340 nm; emission at 420 nm)) was monitored with a PerSeptive Biosystems Cytofluor II fluorescence plate reader. Product progress curves were generated over 2.3 h monitoring the formation of 7-amino-4-methylcoumarin product (or β-naphthalamide for cathepsin H).
Two liters of Spodoptera frugiperda (Sf-9) cells (ATCC) were grown in Grace's Supplemented medium (Life Technologies) supplemented with 2 g/L glucose, 10% fetal bovine serum (HyClone) and 0.1% pluronic F-68 (Life Technologies). […] The cells continued to grow for 72 h post-infection, before the virus was harvested by centrifugation at 1400×g for 30 min.
One and one-half liters of Trichoplusia ni (T. ni) High Five (™) cells [JRH Biosciences, Woodland, Calif. […] Media were separated from cells at a rate of 1 L/min using the Centritech 100 (™) continuous-flow centrifuge (DuPont) operating at 200×g.
Protein Purification: Media (human and rat) were filtered through a Whatman 3 filter, and then loaded onto a 25 mL Poros HS II (26 mm×47 mm) cation exchange column equilibrated in 25 mM sodium acetate at pH 5.5 (equilibration buffer). The column was washed until the absorbance reached the baseline value, and then the protein was eluted with a linear gradient from 0-2 M sodium chloride in the equilibration buffer. Column fractions were analyzed by SDS-PAGE, N-terminal sequencing, and mass spectrometry. Fractions containing the proform of cathepsin K were pooled and frozen at −80° C. The proform was concentrated in an Amicon Centriprep 10 and fractionated with a Superdex 75 column (26 mm×600 mm, Pharmacia) equilibrated in 400 mM sodium chloride, 25 mM sodium acetate at pH 5.5.
Cathepsin K Activation: The proform of cathepsin K was converted to mature cathepsin K by brief exposure to pH 4 in the presence of 5 mM L-cysteine. Typically, 5 mM L-cysteine was added to 10 mL of approximately 1 mg/mL procathepsin K. One mL of this solution was diluted ten-fold into 450 mM sodium acetate at pH 4.0 containing 5 mM L-cysteine. This solution was reacted at 23° C. for 2 min before neutralization with 2 mL 1.8 M sodium acetate at pH 6.0. The neutralized sample was added to the remaining 9 mL of procathepsin K. The mixture was incubated at 4° C. for 2-3 days. The activated cathepsin K was chromatographed on a Poros HS II column as described above.
Potential inhibitors were evaluated using the progress curve method. Assays were carried out in the presence of variable concentrations of test compound. Reactions were initiated by addition of buffered solutions of inhibitor and substrate to enzyme. Data analysis was conducted according to one of two procedures depending on the appearance of the progress curves in the presence of inhibitors. […] Ki values were calculated from IC50 values using equation 2 assuming a competitive model.

Row | Structure (SMILES) | Ki [nM]
1 | CCCC[C@H](NC(=O)OCC1(COc2ccnc(N3CCOCC3)n2)CCC1)C(=O)C(=O)N[C@H](C)c1ccccc1 [Example 22, [1-({[2-(4-morpholinyl)-4-pyrimidinyl]oxy}methyl)cyclobutyl]methyl (1S)-1-(oxo{[(1R)-1-phenylethyl]amino}acetyl)pentylcarbamate] | 10 to 100
2 | CCCC[C@H](NC(=O)OCC1(CCCOc2ccnc(Cl)n2)CCC1)C(=O)C(=O)N[C@H](C)c1ccccc1 [Example 38, (1-{3-[(2-chloro-4-pyrimidinyl)oxy]propyl}cyclobutyl)methyl (1S)-1-(oxo{[(1R)-1-phenylethyl]amino}acetyl)pentylcarbamate] | > 1000
3 | C[C@@H](NC(=O)C(=O)[C@H](CCCCNC(=O)N1CCOCC1)NC(=O)OCC1(Cc2ccccc2)CCCCC1)c1ccccc1 [Example 9, (1-Benzylcyclohexyl)methyl(1S)-5-[(4-morpholinylcarbonyl)amino]-1-(oxo{[(1R)-1-phenylethy]amino}acetyl)pentylcarbamate] | 10 to 100
4 | C[C@@H](NC(=O)C(=O)[C@H](CCCCNC(=O)N1CCOCC1)NC(=O)OCC1(Cc2ccncc2)CCC1)c1ccccc1 [Example 11, [1-(4-Pyridinylmethyl)cyclobutyl]methyl(1S)-5-[(4-morpholinylcarbonyl)amino]-1-(oxo{[(1R)-1-phenylethyl]amino}acetyl)pentylcarbamate] | 1 to 10
5 | CCCC[C@H](NC(=O)OCC1(CSc2nc3ccccc3o2)CCC1)C(=O)C(=O)N[C@H](C)c1ccccc1 [Example 24, {1-[(1,3-benzoxazol-2-ylsulfanyl)methyl]cyclobutyl}methyl (1S)-1-(oxo{[(1R)-1-phenylethyl]amino}acetyl)pentylcarbamate] | 10 to 100
6 | CCCC[C@H](NC(=O)OCC1(COc2nccs2)CCC1)C(=O)C(=O)N[C@H](C)c1ccccc1 [Example 25, {1-[(1,3-thiazol-2-yloxy)methyl]cyclobutyl}methyl (1S)-1-(oxo{[(1R)-1-phenylethyl]amino}acetyl)pentylcarbamate] | 10 to 100
7 | CNC(=O)NCCCC[C@H](NC(=O)OCC1(Cc2c(F)cccc2F)CCC1)C(=O)C(=O)N[C@H](C)c1ccccc1 [Example 13, [1-(2,6-Difluorobenzyl)cyclobutyl]methyl(1S)-5-{[(methylamino)carbonyl]amino}-1-(oxo{[(1R)-1-phenylethyl]amino}acetyl)pentylcarbamate] | 10 to 100
8 | CCCC[C@H](NC(=O)OC1(Cc2ccccc2)CCCC1)C(=O)C(=O)N[C@H](C)c1ccccc1 [Example 2] | 10 to 100
9 | CCCC[C@H](NC(=O)OCC1(CSc2nccn2C)CCC1)C(=O)C(=O)N[C@H](C)c1ccccc1 [Example 19, (1-{[(1-methyl-1H-imidazol-2-yl)sulfanyl]methyl}cyclobutyl)methyl (1S)-1-(oxo{[(1R)-1-phenylethyl]amino}acetyl)pentylcarbamate] | 10 to 100
10 | CCCC[C@H](NC(=O)OCC1(CSc2nccn2-c2ccccc2)CCC1)C(=O)C(=O)N[C@H](C)c1ccccc1 [Example 28, (1-{[(1-phenyl-1H-imidazol-2-yl)sulfanyl]methyl}cyclobutyl)methyl (1S)-1-(oxo{[(1R)-1-phenylethyl]amino}acetyl)pentylcarbamate] | 10 to 100
11 | CCCC[C@H](NC(=O)OCC1(COc2ncccn2)CCC1)C(=O)C(=O)N[C@H](C)c1ccccc1 [Example 30, {1-[(2-pyrimidinyloxy)methyl]cyclobutyl}methyl (1S)-1-(oxo {[(1R)-1-phenylethyl]amino}acetyl)pentylcarbamate] | 100 to 1000
12 | C[C@@H](NC(=O)C(=O)[C@H](CCCCNC(=O)N1CCOCC1)NC(=O)OCC1(Cc2cccnc2)CCC1)c1ccccc1 [Example 12, [1-(3-Pyridinylmethyl)cyclobutyl]methyl(1S)-5-[(4-morpholinylcarbonyl)amino]-1-(oxo{[(1R)-1-phenylethyl]amino}acetyl)pentylcarbamate] | 100 to 1000
13 | CCCC[C@H](NC(=O)OCC1(CSc2nccc(-c3ccc(Cl)cc3)n2)CCC1)C(=O)C(=O)N[C@H](C)c1ccccc1 [Example 33, [1-({[4-(4-chloro phenyl)-2-pyrimidinyl]sulfanyl}methyl)cyclobutyl]methyl (1S)-1-(oxo{[(1R)-1-phenylethyl]amino}acetyl)pentylcarbamate] | 1 to 10
14 | CCCC[C@H](NC(=O)OCC1(COc2nc(-c3ccc(C)cc3)cs2)CCC1)C(=O)C(=O)N[C@H](C)c1ccccc1 [Example 31, [1-({[4-(4-methylphenyl)-1,3-thiazol-2-yl]oxy}methyl)cyclobutyl]methyl (1S)-1-(oxo{[(1R)-1-phenylethyl]amino}acetyl)pentylcarbamate] | 100 to 1000
15 | CCCC[C@H](NC(=O)OCC1(CSc2ncc(-c3ccc(Cl)cc3)n2C)CCC1)C(=O)C(=O)N[C@H](C)c1ccccc1 [Example 34, [1-({[5-(4-chlorophenyl)-1-methyl-1H-imidazol-2-yl]sulfanyl}methyl)cyclobutyl]methyl (1S)-1-(oxo{[(1R)-1-phenylethyl]amino}acetyl)pentylcarbamate] | 100 to 1000
16 | CCCC[C@H](NC(=O)OC1(Cc2ccccc2)CCC1)C(=O)C(=O)N[C@H](C)c1ccccc1 [Example 1, 1-Benzylcyclobutyl (1S)-1-(oxo{[(1R)-1-phenylethyl]amino}acetyl)pentylcarbamate] | 100 to 1000
17 | CCCC[C@H](NC(=O)OC1(Cc2ccccc2)CCCCC1)C(=O)C(=O)N[C@H](C)c1ccccc1 [Example 4, 1-Benzylcyclohexyl(1S)-1-(oxo{[(1R)-1-phenylethyl]amino}acetyl)pentylcarbamate] | 100 to 1000
18 | CCCC[C@H](NC(=O)OCC1(Cc2ccc(F)cc2)CCC1)C(=O)C(=O)Nc1ccn[nH]1 [Example 14, [1-(4-Fluorobenzyl)cyclobutyl]methyl(1S)-1-[oxo(1H-pyrazol-5-ylamino)acetyl]pentylcarbamate] | < 1
19 | CCCC[C@H](NC(=O)OCC1(COc2ccnc(Cl)n2)CCC1)C(=O)C(=O)N[C@H](C)c1ccccc1 [Example 20, (1-{[(2-chloro-4-pyrimidinyl)oxy]methyl}cyclobutyl)methyl(1S)-1-(oxo{[(1R)-1-phenylethyl]amino}acetyl)pentylcarbamate] | 100 to 1000
20 | C[C@@H](NC(=O)C(=O)[C@H](CCCCNC(=O)N1CCOCC1)NC(=O)OCC1(Cc2ccc(F)cc2)CCC1)c1ccccc1 [Example 10, [1-(4-Fluorobenzyl)cyclobutyl]methyl(1S)-5-[(4-morpholinylcarbonyl)amino]-1-(oxo{[(1R)-1-phenylethyl]amino}acetyl)pentylcarbamate] | 10 to 100
21 | CCCC[C@H](NC(=O)OCC1(COc2ccnc(N3CCN(C)CC3)n2)CCC1)C(=O)C(=O)N[C@H](C)c1ccccc1 [Example 21, [1-({[2-(4-methyl-1-piperazinyl)-4-pyrimidinyl]oxy}methyl)cyclobutyl]methyl (1S)-1-(oxo{[(1R)-1-phenylethyl]amino}acetyl)pentylcarbamate] | 10 to 100
22 | CCCC[C@H](NC(=O)OCC1(COc2ccnc(N3CCN(c4ccccc4)CC3)n2)CCC1)C(=O)C(=O)N[C@H](C)c1ccccc1 [Example 27, [1-({[2-(4-phenyl-1-piperazinyl)-4-pyrimidinyl]oxy}methyl)cyclobutyl]methyl (1S)-1-(oxo{[(1R)-1-phenylethyl]amino}acetyl)pentylcarbamate] | 10 to 100
